Measurements from patent EP2229940B1, “Pharmaceutical composition presenting anti-inflammatory and anti-histaminic properties” (Bioxtract S.A., priority 2009, dated 2010).

Tests used:
[1] = 42 mg or 84 mg of oral curcumin; even under metabolised forms; cited from earlier work
[2] = Solubility of curcumin and quercetin in phosphate buffer pH 6.8; type: physicochemical; conditions: 0.2 µm filter
Description: Following the same protocol, the same amount of quercetin (150 mg) is solubilized in phosphate buffer pH 6.8. […] Solubilized quercetin: […] of the initial dose.

Solubilized curcumin ([2]; 84 mg curcumin in 900 ml phosphate buffer pH 6.8, 1 hour at 37°C) | Solubilized quercetin ([2]; 900 ml phosphate buffer pH 6.8, 1 h at 37°C) | SMILES | oral bioavailability of low dosages of curcumin [1]
0.004 % of the initial dose |  | COc1cc(C=CC(=O)CC(=O)C=Cc2ccc(O)c(OC)c2)ccc1O [curcumin, 1,7-bis(4-hydroxyl-3-methoxyphenyl)-1,6-heptadiene-3,5-dione] | not bioavailable at all
 | 4 % of the initial dose | O=c1c(O)c(-c2ccc(O)c(O)c2)oc2cc(O)cc(O)c12 [quercetin, Quercetin] | 
